According to US6902913B2, “Recombinant narbonolide polyketide synthase” (priority 1997, dated 2005):

Key:
picK protein = biological target: T1, picK protein (Streptomyces venezuelae, UniProt O87605, G416S); assay: hydroxylase activity of the picK protein (conversion of narbomycin to picromycin); format: biochemical; conditions: crude supernatant of E. coli BL21-DE3/pKOS023-61, 20 nmol narbomycin, 105 minutes at 30° C., by ELSD peak area
T1 construct: made in house; host or cells: E. coli BL21-DE3
Protocol: Plasmid pKOS023-61 was transformed into E. coli BL21-DE3. Successful transformants were grown in LB-containing carbenicillin (100 μg/ml) at 37° C. to an OD600 of 0.6. Isopropyl-beta-D-thiogalactopyranoside (IPTG) was added to a final concentration of 1 mM, and the cells were grown for an additional 3 hours before harvesting. The cells were collected by centrifugation and frozen at −80° C. A control culture of BL21-DE3 containing the vector plasmid pET21c (Invitrogen) was prepared in parallel.
The frozen BL21-DE3/pKOS023-61 cells were thawed, suspended in […] of cold cell disruption buffer (5 mM imidazole, 500 mM NaCl, 20 mM Tris/HCl, pH 8.0) and sonicated to facilitate lysis. Cellular debris and supernatant were separated by centrifugation and subjected to SDS-PAGE on 10-15% gradient gels, with Coomassie Blue staining, using a Pharmacia Phast Gel Electrophoresis system. The soluble crude extract from BL21-DE3/pKOS023-61 contained a Coomassie stained band of Mr˜46 kDa, which was absent in the control strain BL21-DE3/pET21c.
The hydroxylase activity of the picK protein was assayed as follows. […] Half of the reaction mixture was loaded onto an HPLC, and the effluent was analyzed by evaporative light scattering (ELSD) and mass spectrometry. […]

[1] = biological target: T2, 6-hydroxylase encoded by eryF (Saccharopolyspora erythraea, UniProt Q00441); assay: in vitro 6-hydroxylation by the 6-hydroxylase encoded by eryF; format: biochemical; conditions: 100 pmol hydroxylase, 10 nmol substrate, 90 minutes at 30° C., based on relative total ion counts
T2 construct: made in house; host or cells: E. coli
T2 sequence (Q00441 1-404): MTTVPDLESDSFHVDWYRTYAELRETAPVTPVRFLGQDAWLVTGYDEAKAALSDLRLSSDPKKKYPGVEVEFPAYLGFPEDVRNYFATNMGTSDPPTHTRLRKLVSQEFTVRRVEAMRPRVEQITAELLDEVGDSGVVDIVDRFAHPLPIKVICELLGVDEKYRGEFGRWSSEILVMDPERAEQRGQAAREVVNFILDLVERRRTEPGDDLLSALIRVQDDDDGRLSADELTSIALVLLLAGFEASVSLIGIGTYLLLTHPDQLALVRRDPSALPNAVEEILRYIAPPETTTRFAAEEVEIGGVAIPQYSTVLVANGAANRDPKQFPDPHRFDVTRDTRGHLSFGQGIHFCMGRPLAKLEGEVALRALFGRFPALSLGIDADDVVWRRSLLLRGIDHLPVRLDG
Protocol: The 6-hydroxylase encoded by eryF was expressed in E. coli, and partially purified. The hydroxylase (100 pmol in 10 μL) was added to a reaction mixture (100 μl total volume) containing 50 mM Tris/HCl (pH 7.5), 20 μM spinach ferredoxin, 0.025 Unit of spinach ferredoxin:NADP^+ oxidoreductase, 0.8 Unit of glucose-6-phosphate dehydrogenase, 1.4 mM NADP^+, 7.6 mM glucose-6-phosphate, and 10 nmol 6-deoxyerythronolide B. The reaction was allowed to proceed for 90 minutes at 30° C. Half of the reaction mixture was loaded onto an HPLC, and the effluent was analyzed by mass spectrometry. The production of erythronolide B as evidenced by a new peak eluting earlier in the gradient and showing [M+H]^+=401. Conversion was estimated at 50% based on relative total ion counts.

CC[C@H]1OC(=O)[C@H](C)C(=O)[C@H](C)[C@@H](O[C@@H]2O[C@H](C)C[C@H](N(C)C)[C@H]2O)[C@@H](C)C[C@@H](C)C(=O)/C=C/[C@H]1C [narbomycin]
conversion of narbomycin to picromycin (picK protein): greater than 90%

CC[C@H]1OC(=O)[C@H](C)[C@@H](O)[C@H](C)[C@@H](O)[C@@H](C)C[C@@H](C)C(=O)[C@H](C)[C@@H](O)[C@H]1C [6-deoxyerythronolide B]
conversion of 6-deoxyerythronolide B to erythronolide B [1]: ~50%
